According to ChEMBL document CHEMBL2040548, “Anti-influenza virus activities of 4-substituted 2,4-dioxobutanoic acid inhibitors” (Antimicrob Agents Chemother, 1996):
pIC50: −log10 of the molar value.

Assays:
[1] = target: Polymerase acidic protein (Influenza A virus (A/Puerto Rico/8/1934(H1N1)), UniProt P03433); experiment: Inhibition of cap 1 ALMV primed Influenza transcriptase
[2] = target: Polymerase acidic protein (Influenza A virus (strain A/Hong Kong/1/1968 H3N2)) (UniProt Q91MA9); experiment: Upper respiratory tract challenge; type: functional, organism-based; conditions: Mus musculus

| SMILES | pIC50 [1] | Log10 reduction [2] |
| --- | --- | --- |
| O=C(O)/C(O)=C/C(=O)C1(Cc2ccc(Cl)cc2)CCN(Cc2ccc(Cl)cc2)CC1 | 6.27 |  |
| CC(=O)N[C@@H]1[C@@H](NC(=N)N)C=C(C(=O)O)O[C@@]1(C)[C@H](O)[C@H](O)CO |  | 4.3 |
